Strand notation (5' to 3'): a small letter for the sugar, then the base; units joined by * are phosphorothioate-linked, units joined directly phosphodiester-linked; [ ] holds rarer units or linkages, { } end groups; capitals alone tell only the bases. d = 2'-deoxy (DNA)
Biological target: T1, human type II phospholipase A2 (Homo sapiens, UniProt P14555)
T1 sequence (P14555 21-144): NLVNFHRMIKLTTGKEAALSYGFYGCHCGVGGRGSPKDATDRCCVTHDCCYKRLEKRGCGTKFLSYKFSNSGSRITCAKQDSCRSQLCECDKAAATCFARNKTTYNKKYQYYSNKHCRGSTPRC
Test: Human type II phospholipase A2 enzyme assay (3H-oleic acid labelled E. coli substrate)
Assay type: biochemical

[1] = Table 5, two separate experiments

Substance | % Inhibition (1 μM) (Table 4) [%] | also measured
ISIS 3184: TTCATGGTAAGAGTTCTTGGG, phosphorothioate, SEQ ID NO 60 (dT*dT*dC*dA*dT*dG*dG*dT*dA*dA*dG*dA*dG*dT*dT*dC*dT*dT*dG*dG*dG) | 25.1 | –
ISIS 3481: TTTTTGATTTGCTAATTGCTT, phosphorothioate, SEQ ID NO 77 (dT*dT*dT*dT*dT*dG*dA*dT*dT*dT*dG*dC*dT*dA*dA*dT*dT*dG*dC*dT*dT) | 2.2 | effect on substrate kinetics (increasing E. coli substrate, ISIS 3481 at 0.2 μM and 2 μM): did not modify the substrate kinetics
ISIS 3671: TAGGAGGGTCTTCATGGTAAG, phosphorothioate, SEQ ID NO 88 (dT*dA*dG*dG*dA*dG*dG*dG*dT*dC*dT*dT*dC*dA*dT*dG*dG*dT*dA*dA*dG) | 49.3 | –
ISIS 3631: AGGTCGAGGAGTGGTCTGAGC, phosphorothioate, SEQ ID NO 81 (dA*dG*dG*dT*dC*dG*dA*dG*dG*dA*dG*dT*dG*dG*dT*dC*dT*dG*dA*dG*dC) | 20.7 | I.C.50 relative to ISIS 3196 (fold higher): approximately 10 fold
ISIS 3688: TGGCCTCACCGATCCGTTGCA, phosphorothioate, SEQ ID NO 91 (dT*dG*dG*dC*dC*dT*dC*dA*dC*dC*dG*dA*dT*dC*dC*dG*dT*dT*dG*dC*dA) | 43.1 | –
ISIS 3633: GTAGGGATGGGAGTGAAGGAG, phosphorothioate, SEQ ID NO 83 (dG*dT*dA*dG*dG*dG*dA*dT*dG*dG*dG*dA*dG*dT*dG*dA*dA*dG*dG*dA*dG) | 58.5 | –
ISIS 3193: CCTGCAGTAGGCCTGGAAGGA, phosphorothioate, SEQ ID NO 64 (dC*dC*dT*dG*dC*dA*dG*dT*dA*dG*dG*dC*dC*dT*dG*dG*dA*dA*dG*dG*dA) | 22.6 | –
ISIS 3628: GGAGCCCTfCTATACCCACCC, phosphorothioate, SEQ ID NO 78 | 13.6 | I.C.50 relative to ISIS 3196 (fold higher): approximately 10 fold
GGG TGG GTA TAG AAG GGC: truncated version of ISIS 3196, SEQ ID NO 97 (dG*dG*dG*dT*dG*dG*dG*dT*dA*dT*dA*dG*dA*dA*dG*dG*dG*dC) | – | % Inhibition (1 μM) [1]: 85.3%
ISIS 3679: AGTAGGCCTGGAAGGAAATTT, phosphorothioate, SEQ ID NO 90 (dA*dG*dT*dA*dG*dG*dC*dC*dT*dG*dG*dA*dA*dG*dG*dA*dA*dA*dT*dT*dT) | 30.3 | –
TGG GTA TAG AAG GGC: truncated version of ISIS 3196, SEQ ID NO 102 (dT*dG*dG*dG*dT*dA*dT*dA*dG*dA*dA*dG*dG*dG*dC) | – | % Inhibition (1 μM) [1]: 33.5%
ISIS 3663: GTCTGCTGGGTGGTCTGAACT, phosphorothioate, SEQ ID NO 85 | 16.3 | –
ISIS 3474: ATAGAAGGGCTCCTGCCTGGC, phosphorothioate, SEQ ID NO 70 (dA*dT*dA*dG*dA*dA*dG*dG*dG*dC*dT*dC*dC*dT*dG*dC*dC*dT*dG*dG*dC) | 13.3 | –
ISIS 3632: CCAGGAGAGGTCGGTAAGGCG, phosphorothioate, SEQ ID NO 82 (dC*dC*dA*dG*dG*dA*dG*dA*dG*dG*dT*dC*dG*dG*dT*dA*dA*dG*dG*dC*dG) | 29.2 | –
ISIS 3471: AAGGAACTTGGTTAGGGTAGG, phosphorothioate, SEQ ID NO 67 (dA*dA*dG*dG*dA*dA*dC*dT*dT*dG*dG*dT*dT*dA*dG*dG*dG*dT*dA*dG*dG) | 34.5 | –
ISIS 3669: GGTGACAAATGCAGATGGACT, phosphorothioate, SEQ ID NO 87 (dG*dG*dT*dG*dA*dC*dA*dA*dA*dT*dG*dC*dA*dG*dA*dT*dG*dG*dA*dC*dT) | 34.7 | –
ISIS 3676: AGCTCTTACCAAAGATCATGA, phosphorothioate, SEQ ID NO 89 (dA*dG*dC*dT*dC*dT*dT*dA*dC*dC*dA*dA*dA*dG*dA*dT*dC*dA*dT*dG*dA) | 24.5 | –
ISIS 3659: TGCTCCTCCTTGGTGGCTCTC, phosphorothioate, SEQ ID NO 84 (dT*dG*dC*dT*dC*dC*dT*dC*dC*dT*dT*dG*dG*dT*dG*dG*dC*dT*dC*dT*dC) | 38.2 | –
ISIS 4149: CTACGGCAGAGACGAGATAGC, phosphorothioate, SEQ ID NO 96 (dC*dT*dA*dC*dG*dG*dC*dA*dG*dA*dG*dA*dC*dG*dA*dG*dA*dT*dA*dG*dC) | 20.2 | –
ISIS 3192: GGAAGGTTTCGAGQGAAGAGG, phosphorothioate, SEQ ID NO 63 | 28.1 | –
ISIS 4962: GGG TGG GTA T, SEQ ID NO 108 (dG*dG*dG*dT*dG*dG*dG*dT*dA*dT) | – | % Inhibition (1 μM) [1]: 36.3%
ISIS 3181: TCTGCCCCGGCCGTCGCTCCC, phosphorothioate, SEQ ID NO 58 (dT*dC*dT*dG*dC*dC*dC*dC*dG*dG*dC*dC*dG*dT*dC*dG*dC*dT*dC*dC*dC) | 42.7 | –
ISIS 3480: TTGCTTTATTCAGAAGAGACC, phosphorothioate, SEQ ID NO 76 (dT*dT*dG*dC*dT*dT*dT*dA*dT*dT*dC*dA*dG*dA*dA*dG*dA*dG*dA*dC*dC) | 24.5 | –

Substance | % Inhibition (1 μM) (Table 4) [%] | also measured
ISIS 3479: CCGGAGTACAGGTTCTTTGGT, phosphorothioate, SEQ ID NO 75 | 42.3 | –
ISIS 3476: GCTGGAAATCTGCTGGATGTC, phosphorothioate, SEQ ID NO 72 (dG*dC*dT*dG*dG*dA*dA*dA*dT*dC*dT*dG*dC*dT*dG*dG*dA*dT*dG*dT*dC) | 43.4 | –
ISIS 3475: TCTCATTCTGGGTGGGTATAG, phosphorothioate, SEQ ID NO 71 (dT*dC*dT*dC*dA*dT*dT*dC*dT*dG*dG*dG*dT*dG*dG*dG*dT*dA*dT*dA*dG) | 67.0 | –
ISIS 4133: AGTGCACGTTGAGTATGTGAG, phosphorothioate, SEQ ID NO 95 (dA*dG*dT*dG*dC*dA*dC*dG*dT*dT*dG*dA*dG*dT*dA*dT*dG*dT*dG*dA*dG) | 37.3 | –
ISIS 3472: TGGGTGAGGGATGCTTTCTGC, phosphorothioate, SEQ ID NO 68 (dT*dG*dG*dG*dT*dG*dA*dG*dG*dG*dA*dT*dG*dC*dT*dT*dT*dC*dT*dG*dC) | 69.0 | –
ISIS 4946: GGG TGG GAA TAG, SEQ ID NO 107 (dG*dG*dG*dT*dG*dG*dG*dA*dA*dT*dA*dG; aptamer) | – | % Inhibition (1 μM) [1]: 73.2%
ISIS 3185: CAAAGATCATGATCACTGCCA, phosphorothioate, SEQ ID NO 61 (dC*dA*dA*dA*dG*dA*dT*dC*dA*dT*dG*dA*dT*dC*dA*dC*dT*dG*dC*dC*dA) | 22.7 | –
ISIS 4957: GGG TGG ATA TAG, SEQ ID NO 106 (dG*dG*dG*dT*dG*dG*dA*dT*dA*dT*dA*dG; aptamer) | – | % Inhibition (1 μM) [1]: 81.9%
ISIS 3697: ACTCTTACCACAGGTGATTCT, phosphorothioate, SEQ ID NO 93 (dA*dC*dT*dC*dT*dT*dA*dC*dC*dA*dC*dA*dG*dG*dT*dG*dA*dT*dT*dC*dT) | 39 | –
ISIS 3182: CAGAGGACTCCAGAGTTGTAT, phosphorothioate, SEQ ID NO 59 (dC*dA*dG*dA*dG*dG*dA*dC*dT*dC*dC*dA*dG*dA*dG*dT*dT*dG*dT*dA*dT) | 30.2 | –
ISIS 3468: GGGACTCAGCAACGAGGGGTG, phosphorothioate, SEQ ID NO 65 (dG*dG*dG*dA*dC*dT*dC*dA*dG*dC*dA*dA*dC*dG*dA*dG*dG*dG*dG*dT*dG) | 97.5 | –
ISIS 4955: GGG AGG GTA TAG, SEQ ID NO 104 (dG*dG*dG*dA*dG*dG*dG*dT*dA*dT*dA*dG; aptamer) | – | % Inhibition (1 μM) [1]: 97.5%
ISIS 3665: GGACTGGCCTAGCTCCTCTGC, phosphorothioate, SEQ ID NO 86 (dG*dG*dA*dC*dT*dG*dG*dC*dC*dT*dA*dG*dC*dT*dC*dC*dT*dC*dT*dG*dC) | 45.8 | –
GTA TAG AAG GGC TCC: truncated version of ISIS 3196, SEQ ID NO 100 (dG*dT*dA*dT*dA*dG*dA*dA*dG*dG*dG*dC*dT*dC*dC) | – | % Inhibition (1 μM) [1]: 9.2%
ISIS 3477: GTGGAGGAGAGCAGTAGAAGG, phosphorothioate, SEQ ID NO 73 (dG*dT*dG*dG*dA*dG*dG*dA*dG*dA*dG*dC*dA*dG*dT*dA*dG*dA*dA*dG*dG) | 54.7 | –
ISIS 3478: TGGTTAAGCACGGAGTTGAGG, phosphorothioate, SEQ ID NO 74 (dT*dG*dG*dT*dT*dA*dA*dG*dC*dA*dC*dG*dG*dA*dG*dT*dT*dG*dA*dG*dG) | 26.4 | –
TAG AAG GGC TCC: truncated version of ISIS 3196, SEQ ID NO 101 (dT*dA*dG*dA*dA*dG*dG*dG*dC*dT*dC*dC) | – | % Inhibition (1 μM) [1]: 0%
ISIS 3712: AGGAGTCCTGTTTTGAAATCA, phosphorothioate, SEQ ID NO 94 (dA*dG*dG*dA*dG*dT*dC*dC*dT*dG*dT*dT*dT*dT*dG*dA*dA*dA*dT*dC*dA) | 31.8 | –
TGG GTA TAG AAG GGC TCC: truncated version of ISIS 3196, SEQ ID NO 99 (dT*dG*dG*dG*dT*dA*dT*dA*dG*dA*dA*dG*dG*dG*dC*dT*dC*dC) | – | % Inhibition (1 μM) [1]: 84.6%
ISIS 3473: CTGCCTGGCCTCTAGGATGGG, phosphorothioate, SEQ ID NO 69 (dC*dT*dG*dC*dC*dT*dG*dG*dC*dC*dT*dC*dT*dA*dG*dG*dA*dT*dG*dG*dG) | 25.9 | –
ISIS 1573: phosphorothioate deoxyoligonucleotide, SEQ ID NO: 120 (dG*dA*dG*dG*dC*dT*dG*dA*dG*dG*dT*dG*dG*dG*dA*dG*dG*dA) | – | inhibition of phospholipase A2 (concentrations as high as 10 μM): did not significantly inhibit
ISIS 3629: CACCCCTCGTTGCTGAGTCCC, phosphorothioate, SEQ ID NO 79 (dC*dA*dC*dC*dC*dC*dT*dC*dG*dT*dT*dG*dC*dT*dG*dA*dG*dT*dC*dC*dC) | 20.5 | –
ISIS 3630: TCTCATACCCTCCCTCCCTAC, phosphorothioate, SEQ ID NO 80 (dT*dC*dT*dC*dA*dT*dA*dC*dC*dC*dT*dC*dC*dC*dT*dC*dC*dC*dT*dA*dC) | 17.6 | –

Reference: patent publication US20070015723A1, “Antiviral oligonucleotides having a conserved G4 core sequence” (priority 1992, published 2007)
